# In patent US20210323913A1, “SIGMA RECEPTOR BINDERS” (BOARD OF REGENTS, THE UNIVERSITY OF TEXAS SYSTEM, priority 2016, published 2021):
# Like-named read-outs stand apart in the source and are kept apart here.
# Key:
# sigma 1 receptor = sigma 1 receptor (Homo sapiens, UniProt Q99720); assay: Sigma 1 receptor radioligand competition binding; conditions: Table 1, 7-piperazinyl-tetrahydronaphthalene analogs; read-out: Ki (nM) Sig1R
# sigma 2 receptor = sigma 2 receptor (Homo sapiens, UniProt Q5BJF2); assay: Sigma 2 receptor radioligand competition binding
# 5-HT1A = target: T1, 5-HT1A (Homo sapiens, UniProt P08908); assay: Radioligand competition binding, 5-HT1A; conditions: Table 5; Cheng-Prusoff from best fit IC50
# T1 sequence (P08908 1-422): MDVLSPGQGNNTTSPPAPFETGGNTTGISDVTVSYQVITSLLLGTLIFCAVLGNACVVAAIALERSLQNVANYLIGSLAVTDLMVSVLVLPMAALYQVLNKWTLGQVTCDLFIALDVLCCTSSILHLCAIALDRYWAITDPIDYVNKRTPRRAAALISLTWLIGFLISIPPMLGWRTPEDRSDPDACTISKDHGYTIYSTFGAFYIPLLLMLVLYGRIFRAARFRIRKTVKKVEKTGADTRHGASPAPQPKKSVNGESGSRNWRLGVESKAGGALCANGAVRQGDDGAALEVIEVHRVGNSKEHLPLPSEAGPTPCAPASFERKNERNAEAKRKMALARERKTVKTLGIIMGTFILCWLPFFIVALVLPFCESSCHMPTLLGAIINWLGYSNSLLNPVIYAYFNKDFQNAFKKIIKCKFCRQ
# 5-HT1B = 5-HT1B (Homo sapiens, UniProt P28222); assay: Radioligand competition binding, 5-HT1B; conditions: Table 5; Cheng-Prusoff from best fit IC50
# 5-HT1D = 5-HT1D (Homo sapiens, UniProt P28221); assay: Radioligand competition binding, 5-HT1D; conditions: Table 5; Cheng-Prusoff from best fit IC50
# 5-HT2A = 5-HT2A (Homo sapiens, UniProt P28223); assay: Radioligand competition binding, 5-HT2A; conditions: Table 5; Cheng-Prusoff from best fit IC50
# 5-HT2B = 5-HT2B (Homo sapiens, UniProt P41595); assay: Radioligand competition binding, 5-HT2B; conditions: Table 5; Cheng-Prusoff from best fit IC50
# 5-HT2C = target: T2, 5-HT2C (Homo sapiens, UniProt P28335); assay: Radioligand competition binding, 5-HT2C; conditions: Table 5; Cheng-Prusoff from best fit IC50
# T2 sequence (P28335 33-458): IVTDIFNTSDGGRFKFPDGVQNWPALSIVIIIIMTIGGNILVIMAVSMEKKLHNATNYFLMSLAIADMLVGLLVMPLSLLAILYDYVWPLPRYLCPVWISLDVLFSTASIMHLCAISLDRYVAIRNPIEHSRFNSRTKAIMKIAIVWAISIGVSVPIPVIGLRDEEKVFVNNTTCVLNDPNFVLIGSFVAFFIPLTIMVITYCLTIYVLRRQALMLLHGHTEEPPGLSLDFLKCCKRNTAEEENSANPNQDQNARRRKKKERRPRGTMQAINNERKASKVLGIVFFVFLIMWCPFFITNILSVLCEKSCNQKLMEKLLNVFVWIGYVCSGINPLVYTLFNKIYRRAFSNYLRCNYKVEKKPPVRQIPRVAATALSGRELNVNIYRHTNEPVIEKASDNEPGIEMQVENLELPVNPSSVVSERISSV
# 5-ht5a = 5-ht5a (Homo sapiens, UniProt P47898); assay: Radioligand competition binding, 5-ht5a; conditions: Table 5; Cheng-Prusoff from best fit IC50
# 5-HT6 = 5-HT6 (Homo sapiens, UniProt P50406); assay: Radioligand competition binding, 5-HT6; conditions: Table 5; Cheng-Prusoff from best fit IC50
# 5-HT7 = 5-HT7 (Homo sapiens, UniProt P34969); assay: Radioligand competition binding, 5-HT7; conditions: Table 5; Cheng-Prusoff from best fit IC50
# D1 = D1 (Homo sapiens, UniProt P21728); assay: Radioligand competition binding, D1; conditions: Table 5; Cheng-Prusoff from best fit IC50; some values marked (AVE)
# D3 = D3 (Homo sapiens, UniProt P35462); assay: Radioligand competition binding, D3; conditions: Table 5; Cheng-Prusoff from best fit IC50; one value marked (AVE)
# D4 = target: T3, D4 (Homo sapiens, UniProt P21917); assay: Radioligand competition binding, D4; conditions: Table 5; Cheng-Prusoff from best fit IC50
# T3 sequence (P21917 1-419): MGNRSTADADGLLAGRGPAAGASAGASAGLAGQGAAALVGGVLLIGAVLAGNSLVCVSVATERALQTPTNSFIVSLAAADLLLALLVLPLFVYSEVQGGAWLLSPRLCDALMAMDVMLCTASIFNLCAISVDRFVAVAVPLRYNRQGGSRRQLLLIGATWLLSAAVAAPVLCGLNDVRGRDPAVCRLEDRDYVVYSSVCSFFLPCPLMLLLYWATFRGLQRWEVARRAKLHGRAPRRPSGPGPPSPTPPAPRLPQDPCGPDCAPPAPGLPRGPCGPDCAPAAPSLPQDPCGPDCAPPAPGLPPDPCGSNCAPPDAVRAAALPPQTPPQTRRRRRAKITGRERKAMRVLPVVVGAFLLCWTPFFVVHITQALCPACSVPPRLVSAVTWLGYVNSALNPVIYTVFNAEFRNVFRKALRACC
# H2 = H2 (Homo sapiens, UniProt P25021); assay: Radioligand competition binding, H2; conditions: Table 5; Cheng-Prusoff from best fit IC50
# KOR = KOR (Homo sapiens, UniProt P41145); assay: Radioligand competition binding, KOR; conditions: Table 5; Cheng-Prusoff from best fit IC50; some values marked (AVE)
# M4 = M4 (Homo sapiens, UniProt P08173); assay: Radioligand competition binding, M4; conditions: Table 5; Cheng-Prusoff from best fit IC50; one value marked (AVE)
# PBR = PBR (UniProt P16257); assay: Radioligand competition binding, PBR; conditions: Table 5; Cheng-Prusoff from best fit IC50; one value marked (AVE)
# SERT = SERT (Homo sapiens, UniProt P31645); assay: Radioligand competition binding, SERT; conditions: Table 5; Cheng-Prusoff from best fit IC50
compound,measurement,setting,value
"CCN(CC)C(=O)CCN1CCN(c2ccc3c(c2)C(N(C)C(=O)OCc2ccccc2)CCC3)CC1 (stereo not drawn) [MDW-1-213, Benzyl (7-(4-(3-(diethylamino)-3-oxopropyl)piperazin-1-yl)-1,2,3,4-tetrahydronaphthalen-1-yl)(methyl)carbamate]",Ki,sigma 1 receptor,2100 nM
same,Ki,"sigma 2 receptor; Table 1, 7-piperazinyl-tetrahydronaphthalene analogs, read-out: Ki (nM) Sig2R",7 nM
same,Ki ratio Sig1R/Sig2R,"sigma 2 receptor; Table 1, ratio of Sig1R Ki to Sig2R Ki",292
same,Ki,"sigma 2 receptor; Table 5, Cheng-Prusoff from best fit IC50, read-out: Ki Sigma 2",7.2 nM
same,Ki,5-HT1A,335 nM
same,Ki,5-HT1B,317 nM
same,Ki,5-HT1D,1360 nM
same,Ki,5-HT2A,957 nM
same,Ki,5-HT2B,692 nM
same,Ki,5-HT2C,2630 nM
same,Ki,5-ht5a,1880 nM
same,Ki,5-HT6,932 nM
same,Ki,5-HT7,828 nM
same,Ki,D1,4050 nM
same,Ki,D3,852 nM
same,Ki,D4,319 nM
same,Ki,H2,333 nM
same,Ki,KOR,5350 nM
same,Ki,M4,3280 nM
same,Ki,PBR,1200 nM
same,Ki,SERT,> 10000 nM
